# Experimental data published in ChEMBL document CHEMBL3217453, “Aminomethyl substituted thieno[2,3-d]pyrimidines as adenosine A2A receptor antagonists” (Medchemcomm, 2011).
# pKi: −log10 of the molar value. Activity calls are given as the source filed them. The rule behind the calls is not given here.
# How the values were obtained:
# [1] = molecular target: T1, Adenosine receptor A1 (Homo sapiens, UniProt P30542); test: Antagonist activity at human adenosine A1 receptor expressed in CHO-K1 cells preincubated for 15 mins before r-PIA addition measured after 5.5 to 6 hrs by beta-galactosidase reporter gene assay; type: cell-based
# T1 sequence (P30542 whole entry): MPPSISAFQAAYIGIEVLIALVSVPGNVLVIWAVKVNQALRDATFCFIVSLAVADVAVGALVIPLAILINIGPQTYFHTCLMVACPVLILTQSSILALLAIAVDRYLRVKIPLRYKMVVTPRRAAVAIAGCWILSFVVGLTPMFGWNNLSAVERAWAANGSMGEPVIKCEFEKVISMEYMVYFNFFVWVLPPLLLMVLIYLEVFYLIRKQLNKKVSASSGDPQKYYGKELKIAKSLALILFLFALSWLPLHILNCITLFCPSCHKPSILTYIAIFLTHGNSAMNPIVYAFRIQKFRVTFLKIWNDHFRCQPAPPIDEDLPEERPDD
# [2] = molecular target: Adenosine receptor A2a (Homo sapiens, UniProt P29274); test: Antagonist activity at human adenosine A2A receptor expressed in CHO-K1 cells preincubated for 15 mins before NECA addition measured after 5.5 to 6 hrs by beta-galactosidase reporter gene assay; type: functional, cell-based
# Chain of Adenosine receptor A2a (P29274 whole entry): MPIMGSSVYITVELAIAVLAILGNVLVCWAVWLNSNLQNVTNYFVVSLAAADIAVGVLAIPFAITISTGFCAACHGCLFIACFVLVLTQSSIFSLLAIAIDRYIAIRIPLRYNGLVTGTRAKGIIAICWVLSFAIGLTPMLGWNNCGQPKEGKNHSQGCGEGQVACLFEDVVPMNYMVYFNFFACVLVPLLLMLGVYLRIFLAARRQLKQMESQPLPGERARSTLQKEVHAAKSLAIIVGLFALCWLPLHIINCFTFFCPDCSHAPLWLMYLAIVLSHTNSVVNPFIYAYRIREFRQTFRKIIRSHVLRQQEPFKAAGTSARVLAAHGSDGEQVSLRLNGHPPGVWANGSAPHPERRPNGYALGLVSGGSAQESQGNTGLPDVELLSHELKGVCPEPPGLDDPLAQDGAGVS
# [3] = tested on: Mus musculus; test: Reversal of haloperidol-induced catalepsy in po dosed balb/c mouse compound administered 30 mins post challenge; type: functional; conditions: 0.5 h
# [4] = tested on: Mus musculus; test: Reversal of haloperidol-induced catalepsy in balb/c mouse at 10 mg/kg, po compound administered 30 mins post challenge; type: functional
pKi [1],pKi [2],Structure (SMILES),ED50 [3] [mg/kg],Activity [4]
5.52,< 5.00,Nc1nc(-c2cccc(C(F)(F)F)c2)nc2sc(CN3CCC(F)CC3)cc12,–,–
< 6.03,–,Cc1csc(-c2nc(N)c3cc(CN4CCOCC4)sc3n2)n1,–,–
–,7.26,N#Cc1cccc(-c2nc(N)c3cc(CN4CCC(F)CC4)sc3n2)c1,< 1,–
6.01,7.29,N#Cc1cccc(-c2nc(N)c3cc(CN4CCSCC4)sc3n2)c1,–,–
6.54,–,Nc1nc(-c2ccco2)nc2sc(CN3CCCC(F)(F)C3)cc12,< 1,–
6.72,7.60,CCc1ccc(-c2nc(N)c3cc(CN4[C@H](C)CCC[C@@H]4C)sc3n2)o1,–,–
–,8.06,Nc1nc(-c2ccco2)nc2sc(CN3CCC(F)(F)C3)cc12,10,–
–,–,Cc1ccc(-c2nc(N)c3cc(CN4CCCC4)sc3n2)o1,–,inactive
5.53,–,Nc1nc(-c2cccc(C(F)(F)F)c2)nc2sc(CN3CC=CC3)cc12,–,–
–,6.96,C[C@@H]1CCC[C@H](C)N1Cc1cc2c(N)nc(-c3ccc(C4CC4)o3)nc2s1,–,–
5.41,6.62,Nc1nc(-c2ncco2)nc2sc(CN3CC=CC3)cc12,–,–
–,7.30,Nc1nc(-c2ccco2)nc2sc(CN3CCC(F)(F)CC3)cc12,–,–
6.08,7.41,N#Cc1cccc(-c2nc(N)c3cc(CN4CCCC(F)(F)C4)sc3n2)c1,< 1,–
–,6.77,Nc1nc(-c2ccco2)nc2sc(CNC3CCCCC3)cc12,–,–
< 5.30,6.00,Nc1nc(-c2ccccc2)nc2sc(CN3CCOCC3)cc12,–,–
6.82,8.19,Nc1nc(-c2ccco2)nc2sc(CN3CC=CCC3)cc12,< 3,–
< 5.96,–,Nc1nc(-c2ccc(C3CC3)o2)nc2sc(CN3CCOCC3)cc12,–,–
–,7.36,Nc1nc(-c2ccc(C(F)F)o2)nc2sc(CN3CCCC(F)(F)C3)cc12,–,–
6.43,8.04,Nc1nc(-c2ccco2)nc2sc(CN3CCSCC3)cc12,3.2,–
6.85,7.77,CC(C)c1ccc(-c2nc(N)c3cc(CN4[C@H](C)CCC[C@@H]4C)sc3n2)o1,–,inactive

pKi [1],pKi [2],Structure (SMILES),ED50 [3] [mg/kg],Activity [4]
–,8.00,Nc1nc(-c2ccc(Cl)o2)nc2sc(CN3CC=CC3)cc12,–,inactive
< 5.00,5.65,CN(C)C(=O)c1cccc(-c2nc(N)c3cc(CN4CCC(F)CC4)sc3n2)c1,–,–
–,6.92,Nc1nc(-c2cccc(Cl)c2)nc2sc(CN3CCOCC3)cc12,–,–
6.72,7.96,Nc1nc(-c2ccc(Cl)o2)nc2sc(CN3CC=CCC3)cc12,–,–
–,6.60,Nc1nc(-c2nccs2)nc2sc(CN3CCOCC3)cc12,–,–
–,6.41,N#Cc1ccc(-c2nc(N)c3cc(CN4CCC(F)CC4)sc3n2)cc1,–,–
< 5.00,< 5.00,CS(=O)(=O)c1cccc(-c2nc(N)c3cc(CN4CCC(F)CC4)sc3n2)c1,–,–
–,6.85,CN(C)Cc1cc2c(N)nc(-c3ccco3)nc2s1,–,–
6.61,7.80,Nc1nc(-c2ccc(Cl)o2)nc2sc(CN3CCC(F)(F)C3)cc12,–,–
7.40,–,C[C@@H]1CCC[C@H](C)N1Cc1cc2c(N)nc(-c3ccc(Br)o3)nc2s1,–,–
–,–,Nc1nc(-c2ccco2)nc2sc(CN3CCCC3)cc12,–,inactive
–,7.71,Nc1nc(-c2ccco2)nc2sc(CN3CCC(F)CC3)cc12,< 1,–
–,–,Nc1nc(-c2ccco2)nc2sc(CNC3CC3)cc12,–,inactive
–,7.54,C[C@@H]1CCC[C@H](C)N1Cc1cc2c(N)nc(-c3ccc(C(F)F)o3)nc2s1,–,inactive
6.15,7.65,Nc1nc(-c2ccc(Br)o2)nc2sc(CN3CCCC3)cc12,–,inactive
5.93,7.56,Nc1nc(-c2ccco2)nc2sc(CN3CCCCCC3)cc12,–,–
–,6.96,Nc1nc(-c2cccc(F)c2)nc2sc(CN3CCOCC3)cc12,–,–
< 5.00,< 5.00,Nc1nc(-c2ccccc2C(F)(F)F)nc2sc(CN3CCC(F)CC3)cc12,–,–
5.99,6.90,Nc1nc(-c2cccs2)nc2sc(CN3CCOCC3)cc12,–,–
–,< 5.00,N#Cc1cccc(-c2nc(N)c3cc(CN4CCCC4)sc3n2)c1,–,–

pKi [1],pKi [2],Structure (SMILES),ED50 [3] [mg/kg],Activity [4]
5.77,7.54,Nc1nc(-c2ccco2)nc2sc(CN3CCOCC3)cc12,1.3,–
6.73,8.04,Nc1nc(-c2ccc(Cl)o2)nc2sc(CN3CCCC(F)(F)C3)cc12,–,–
< 5.00,6.96,Nc1nc(-c2cccs2)nc2sc(CN3CCCC3)cc12,–,–
–,7.44,Nc1nc(-c2ccc(Cl)o2)nc2sc(CN3CCC(F)CC3)cc12,–,–
–,–,Nc1nc(-c2ccc(Cl)o2)nc2sc(CN3CCCC3)cc12,–,inactive
5.53,6.62,Nc1nc(-c2ncco2)nc2sc(CN3CC=CCC3)cc12,–,–
6.19,7.34,Nc1nc(-c2ccc(Cl)o2)nc2sc(CN3CCOCC3)cc12,–,–
–,6.74,N#Cc1ccc(-c2nc(N)c3cc(CN4CC=CCC4)sc3n2)cc1,–,–
6.14,7.52,Nc1nc(-c2ccc(Br)o2)nc2sc(CN3CCOCC3)cc12,–,–
–,7.54,Cc1ccc(-c2nc(N)c3cc(CN4CCCCC4)sc3n2)o1,–,inactive
< 6.21,–,CCc1ccc(-c2nc(N)c3cc(CN4CCOCC4)sc3n2)o1,–,–
5.45,< 5.00,Nc1nc(-c2ccc(C(F)(F)F)cc2)nc2sc(CN3CCC(F)CC3)cc12,–,–
–,–,N#Cc1cccc(-c2nc(N)c3cc(CN4CCOCC4)sc3n2)c1,< 1,–
–,8.28,C[C@@H]1CCC[C@H](C)N1Cc1cc2c(N)nc(-c3ccco3)nc2s1,–,–
6.54,8.14,Nc1nc(-c2ccco2)nc2sc(CN3CC=CC3)cc12,< 0.1,–
< 5.00,5.42,Nc1nc(-c2cccc([N+](=O)[O-])c2)nc2sc(CN3CCC(F)CC3)cc12,–,–
–,7.99,Nc1nc(-c2ccco2)nc2sc(CN3CCC(F)C3)cc12 (stereo unspecified),–,inactive
–,–,Nc1nc(-c2ccc(C(F)F)o2)nc2sc(CN3CCOCC3)cc12,–,inactive
< 6.22,< 5.87,CC(C)c1ccc(-c2nc(N)c3cc(CN4CCOCC4)sc3n2)o1,–,–
